A short description of this data set: HILIC, Merck SeQuant ZIC-HILIC, 25 °C, 0.25 mL/min; A: water + 16 mM ammonium formate; B: acetonitrile + 0.1% formic acid, pH 3; gradient (min/%B) 0/97 2/97 10/70 15/10 17/10 18/97 25/97. To be noted: stereoisomer not certain.
As for `O=C([O-])c1cc(=O)[nH]c(=O)[nH]1` [OROTATE], the LC retention time was 10.9 min.

Consider `O=C(O)C(=O)O` [OXALATE], for which the LC retention time was determined as 17.5 min. For the molecule `NCC(O)c1ccc(O)cc1` (stereo unspecified) [P-OCTOPAMINE], the LC retention time worked out at 12.4 min. As for `OCC1OC(OCC2OC(O)(CO)C(O)C2O)C(O)C(O)C1O` (stereo unspecified) [PALATINOSE], the LC retention time turned out to be 13.6 min. In the case of `NCCc1ccccc1` [PHENETHYLAMINE] it was 10.2 min; in that of `NCC(O)c1ccccc1` (stereo unspecified) [PHENYLETHANOLAMINE], 10.9 min; in that of `O=C(O)C(=O)Cc1ccccc1` [PHENYLPYRUVATE], 2.18 min.

Regarding `C=C(OP(=O)(O)O)C(=O)[O-]` [PHOSPHOENOLPYRUVATE], the LC retention time was 14.7 min. With `O=C(O)CP(=O)(O)O` [PHOSPHONOACETATE] the figure was 14.3 min. For `O=P(O)(O)OCC1OC(OP(=O)(O)OP(=O)(O)O)C(O)C1O` (stereo unspecified) [PHOSPHORIBOSYL PYROPHOSPHATE], the LC retention time turned out to be 15.7 min. As to `C[N+](C)(C)CCOP(=O)(O)O` [PHOSPHORYLCHOLINE], the LC retention time amounted to 15.6 min. As to `CC(=CCC1=C(C)C(=O)c2ccccc2C1=O)CCCC(C)CCCC(C)CCCC(C)C` (stereo unspecified) [PHYLLOQUINONE], the LC retention time was 1.49 min.

On to `C=Cc1c(C)c2cc3[nH]c(cc4nc(cc5nc(cc1[nH]2)C(C)=C5CCC(=O)O)C(CCC(=O)O)=C4C)c(C)c3C=C` [PROTOPORPHYRIN], for which the LC retention time amounted to 1.81 min.

In the case of `NCCCCN` [PUTRESCINE], the LC retention time worked out at 17.4 min. With `Cc1ncc(COP(=O)(O)O)c(C=O)c1O` [PYRIDOXAL-PHOSPHATE] the figure was 11.8 min. In the case of `Cc1ncc(CO)c(C=O)c1O` [PYRIDOXAL] it was 8.23 min; in that of `Cc1ncc(CO)c(CN)c1O` [PYRIDOXAMINE], 14.6 min; in that of `Cc1ncc(CO)c(CO)c1O` [PYRIDOXINE], 10.4 min.

Regarding `O=C(O)c1ccc[nH]1` [PYRROLE-2-CARBOXYLATE], the LC retention time worked out at 2.08 min. Turning to `O=C(O)c1cccc[n+]1[O-]` [Picolinic acid N-oxide], the LC retention time stood at 1.9 min. For `CC(=O)C1CCC2C3CCC4=CC(=O)CCC4(C)C3CCC12C` (stereo unspecified) [Progesterone], the LC retention time is 1.58 min. Turning to `O=C(O)c1cccnc1C(=O)O` [QUINOLINATE], the LC retention time is 8.88 min. Turning to `c1ccc2ncccc2c1` [QUINOLINE], the LC retention time was 2.14 min.

For `O=c1c(OC2OC(CO)C(O)C(O)C2O)c(-c2ccc(O)c(O)c2)oc2cc(O)cc(O)c12` [Quercetin-3-beta-D-glucoside], the LC retention time was 9.37 min. On to `OCC1OC(OCC2OC(OC3(CO)OC(CO)C(O)C3O)C(O)C(O)C2O)C(O)C(O)C1O` (stereo unspecified) [RAFFINOSE], for which the LC retention time turned out to be 14.6 min.

`CC(=O)Oc1cccc(O)c1` [RESORCINOL MONOACETATE]: the LC retention time stood at 1.71 min. With `O=C(C=Cc1ccc(O)c(O)c1)OC(Cc1ccc(O)c(O)c1)C(=O)O` (stereo unspecified) [ROSMARINATE] the figure was 8.82 min; with `C[S+](CCC(N)C(=O)[O-])CC1OC(n2cnc3c(N)ncnc32)C(O)C1O` (stereo unspecified) [S-ADENOSYLMETHIONINE], 15.9 min; with `NC(CSCC(=O)O)C(=O)O` (stereo unspecified) [S-CARBOXYMETHYLCYSTEINE], 14.4 min.

Regarding `NC(=O)c1ccccc1O` [SALICYLAMIDE], the LC retention time came out at 1.74 min. Regarding `O=C(O)c1ccccc1O` [SALICYLATE], the LC retention time amounted to 1.81 min.

For the molecule `CC1NCCc2cc(O)c(O)cc21` (stereo unspecified) [SALSOLINOL], the LC retention time was 11.1 min. `CNCC(=O)O` [SARCOSINE]: the LC retention time stood at 13.6 min. Regarding `NCC[Se][Se]CCN` [SELENOCYSTAMINE], the LC retention time is 16.9 min. In the case of `CC=CC=CC(=O)O` [SORBATE] it was 1.8 min; in that of `NCCCCNCCCN` [SPERMIDINE], 19.5 min.

The record behind these values is the RepoRT retention time repository.
